Results from patent US10550105B2 (Ribon Therapeutics Inc., priority 2018, dated 2020).
pIC50: −log10 of the molar value.

Target: PARP7 (Homo sapiens (Human), UniProt Q7Z3E1)
Experiment: Enzymatic assay for inhibition of PARP7: TR-FRET displacement of biotinylated Probe A from the TIPARP active site
Type: binding
Conditions: Table A-1
Summary of the method: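 Read-out: 665/615 nm emission ratio (ex 320 nm, 90 μs delay) indexing bound TIPARP–Probe A. Final incubation 30 min, 25° C; compounds in dose response. Curve fit of % inhibition vs concentration; Hill slope floating or fixed at 1 (3-parameter).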

Chain of PARP7 (Q7Z3E1 whole entry): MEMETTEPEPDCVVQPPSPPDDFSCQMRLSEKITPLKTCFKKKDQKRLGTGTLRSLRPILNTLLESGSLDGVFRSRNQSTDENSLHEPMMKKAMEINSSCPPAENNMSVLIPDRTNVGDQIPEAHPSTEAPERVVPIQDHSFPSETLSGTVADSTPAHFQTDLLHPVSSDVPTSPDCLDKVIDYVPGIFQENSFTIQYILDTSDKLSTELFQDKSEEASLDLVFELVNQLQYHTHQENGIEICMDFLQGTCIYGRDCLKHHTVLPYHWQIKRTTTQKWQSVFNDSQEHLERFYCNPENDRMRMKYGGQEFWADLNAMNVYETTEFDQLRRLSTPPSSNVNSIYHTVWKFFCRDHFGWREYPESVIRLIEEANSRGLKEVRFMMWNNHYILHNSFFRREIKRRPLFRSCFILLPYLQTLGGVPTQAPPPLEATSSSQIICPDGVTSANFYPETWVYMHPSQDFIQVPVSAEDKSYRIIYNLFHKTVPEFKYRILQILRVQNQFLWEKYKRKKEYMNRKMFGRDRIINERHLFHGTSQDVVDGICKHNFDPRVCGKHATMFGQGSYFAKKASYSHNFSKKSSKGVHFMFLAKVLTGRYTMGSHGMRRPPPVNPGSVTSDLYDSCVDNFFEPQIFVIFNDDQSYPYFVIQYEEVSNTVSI

Row | SMILES | pIC50
1 | COC[C@@H](COCCC(=O)N1CCN(c2cnc(C)cn2)CC1)Nc1cn[nH]c(=O)c1C(F)(F)F [Example 695, (S)-5-((1-Methoxy-3-(3-(4-(5-methylpyrazin-2-yl)piperazin-1-yl)-3-oxopropoxy)propan-2-yl)amino)-4-(trifluoromethyl)pyridazin-3(2H)-one] | > 7.00
2 | N#Cc1ccc(N2CCN(C(=O)[C@H]3CC[C@@H](OC[C@@H]4CCCN4c4cn[nH]c(=O)c4C(F)(F)F)CC3)CC2)nc1 (single isomer, unassigned; isomer b) [Example 82 Isomer B] | 6.00 to 7.00
3 | C[C@@H](COCCS(=O)(=O)N1CCN(c2ncc(C(F)(F)F)s2)CC1)Nc1cn[nH]c(=O)c1Cl [Example 731, (S)-4-Chloro-5-((1-(2-((4-(5-(trifluoromethyl)thiazol-2-yl)piperazin-1-yl)sulfonyl)ethoxy)propan-2-yl)amino)pyridazin-3(2H)-one] | > 7.00
4 | COC[C@@H](COCCC(=O)N1CCN(c2ncc(C(F)(F)F)cn2)CC1)Nc1cn[nH]c(=O)c1C(F)(F)F [Example 559, 5-[[(2S)-1-Methoxy-3-(3-oxo-3-[4-[5-(trifluoromethyl)pyrimidin-2-yl]piperazin-1-yl]propoxy)propan-2-yl]amino]-4-(trifluoromethyl)-2,3-dihydropyridazin-3-one] | > 7.00
5 | N#Cc1cccc2c1CN(c1cn[nH]c(=O)c1C(F)(F)F)C2 [Example 206, 2-(6-Oxo-5-(trifluoromethyl)-1,6-dihydropyridazin-4-yl)isoindoline-4-carbonitrile] | > 7.00
6 | C[C@@H]1CN(c2ccc(C#N)cn2)CCN1C(=O)CCOC[C@@H]1CCCN1c1cn[nH]c(=O)c1C(F)(F)F [Example 100A, 6-[(3R)-3-methyl-4-(3-[[(2S)-1-[6-oxo-5-(trifluoromethyl)-1,6-dihydropyridazin-4-yl]pyrrolidin-2-yl]methoxy]propanoyl)piperazin-1-yl]pyridine-3-carbonitrile] | > 7.00
7 | C[C@@H]1CN(c2ncc(C(F)(F)F)cn2)CCN1C(=O)CCOC[C@H](C)Nc1cn[nH]c(=O)c1C(F)(F)F (single isomer, unassigned) [Example 619 Isomer B] | > 7.00
8 | O=C(CC1CCC(COc2cn[nH]c(=O)c2C(F)(F)F)N1)N1CCN(c2ncc(C(F)(F)F)cn2)CC1 (centres unmarked) [Example 642, 5-((5-(2-Oxo-2-(4-(5-(trifluoromethyl)pyrimidin-2-yl)piperazin-1-yl)ethyl)pyrrolidin-2-yl)methoxy)-4-(trifluoromethyl)pyridazin-3(2H)-one] | 6.00 to 7.00
9 | O=c1[nH]ncc(N2Cc3ccnc(OC4CCNCC4)c3C2)c1C(F)(F)F [Example 16, 5-[4-(piperidin-4-yloxy)-1H,2H,3H-pyrrolo[3,4-c]pyridin-2-yl]-4-(trifluoromethyl)-2,3-dihydropyridazin-3-one] | 6.00 to 7.00
10 | N#Cc1ccc(N2CCN(C(=O)c3nccc(OC[C@@H]4CCCN4c4cn[nH]c(=O)c4C(F)(F)F)n3)CC2)nc1 [Example 66, 6-[4-[(4-[[(2S)-1-[6-oxo-5-(trifluoromethyl)-1,6-dihydropyridazin-4-yl]pyrrolidin-2-yl]methoxy]pyrimidin-2-yl)carbonyl]piperazin-1-yl]pyridine-3-carbonitrile] | > 7.00
11 | O=c1[nH]ncc(N2Cc3ccncc3C2)c1C(F)(F)F [Example 280, 5-(1,3-Dihydro-2H-pyrrolo[3,4-c]pyridin-2-yl)-4-(trifluoromethyl)pyridazin-3(2H)-one] | 6.00 to 7.00
12 | O=C(C[C@H]1CC[C@H]([C@@H]2CCCN2c2cn[nH]c(=O)c2C(F)(F)F)O1)N1CCN(c2ccc(Cl)cn2)CC1 [Example 148C, 5-[(2S)-2-[(2R,5R)-5-[2-[4-(5-chloropyridin-2-yl)piperazin-1-yl]-2-oxoethyl]oxolan-2-yl]pyrrolidin-1-yl]-4-(trifluoromethyl)-2,3-dihydropyridazin-3-one] | > 7.00
13 | N#Cc1ccc(N2CCC(NC(=O)CCOC[C@@H]3CCCN3c3cn[nH]c(=O)c3C(F)(F)F)CC2)nc1 [Example 115, N-[1-(5-cyanopyridin-2-yl)piperidin-4-yl]-3-[[(2S)-1-[6-oxo-5-(trifluoromethyl)-1,6-dihydropyridazin-4-yl]pyrrolidin-2-yl]methoxy]propanamide] | > 7.00
14 | NCC1c2ccccc2CN1c1cn[nH]c(=O)c1C(F)(F)F (centres unmarked) [Example 275, 5-(1-(Aminomethyl)isoindolin-2-yl)-4-(trifluoromethyl)pyridazin-3(2H)-one] | ≤ 6.00
15 | C[C@@H](COCCS(=O)(=O)N1CCN(c2ncc(C(F)(F)F)cn2)CC1)Oc1cn[nH]c(=O)c1C(F)(F)F [Example 728, (S)-4-(Trifluoromethyl)-5-((1-(2-((4-(5-(trifluoromethyl)pyrimidin-2-yl)piperazin-1-yl)sulfonyl)ethoxy)propan-2-yl)oxy)pyridazin-3(2H)-one] | > 7.00
16 | CC(=O)N1CCC(Oc2cc3c(cn2)CN(c2cn[nH]c(=O)c2C(F)(F)F)C3)CC1 [Example 13] | > 7.00

Row | SMILES | pIC50
17 | C[C@@H](COCCC(=O)N1CCN(c2cc(C(F)(F)F)ccn2)CC1)Nc1cn[nH]c(=O)c1C(F)(F)F [Example 674, (S)-5-((1-(3-Oxo-3-(4-(4-(trifluoromethyl)pyridin-2-yl)piperazin-1-yl)propoxy)propan-2-yl)amino)-4-(trifluoromethyl)pyridazin-3(2H)-one] | > 7.00
18 | O=C(CCNC[C@@H]1c2ccccc2CN1c1cn[nH]c(=O)c1C(F)(F)F)N1CCN(c2ncc(Cl)cn2)CC1 [Example 627, (S)-5-(1-(((3-(4-(5-Chloropyrimidin-2-yl)piperazin-1-yl)-3-oxopropyl)amino)methyl)isoindolin-2-yl)-4-(trifluoromethyl)pyridazin-3(2H)-one] | > 7.00
19 | N#Cc1ccc(N2CCCN(C(=O)CCOC[C@@H]3CCCN3c3cn[nH]c(=O)c3C(F)(F)F)CC2)nc1 [Example 106, (S)-6-(4-(3-((1-(6-oxo-5-(trifluoromethyl)-1,6-dihydropyridazin-4-yl)pyrrolidin-2-yl)methoxy)propanoyl)-1,4-diazepan-1-yl)nicotinonitrile] | > 7.00
20 | COC[C@@H](COCCC(=O)N1CCN(c2ncc(C(F)(F)F)cn2)CC1)Oc1cn[nH]c(=O)c1C(F)(F)F (single isomer, unassigned) [Example 570 Isomer A] | > 7.00
21 | O=c1[nH]ncc(N2Cc3cccc(CNCc4ccncc4)c3C2)c1C(F)(F)F [Example 329, 5-(4-(((Pyridin-4-ylmethyl)amino)methyl)isoindolin-2-yl)-4-(trifluoromethyl)pyridazin-3(2H)-one] | > 7.00
22 | COC[C@@H](COCCS(=O)(=O)N1CCN(c2ncc(C(F)(F)F)cn2)CC1)Nc1cn[nH]c(=O)c1C(F)(F)F [Example 624, (S)-5-((1-Methoxy-3-(2-[(4-(5-(trifluoromethyl)pyrimidin-2-yl)piperazin-1-yl)sulfonyl)ethoxy)propan-2-yl)amino)-4-(trifluoromethyl)pyridazin-3(2H)-one] | > 7.00
23 | COC[C@@H](COCCC(=O)N1CCN(c2ncc(C(F)(F)F)cn2)CC1)Oc1cn[nH]c(=O)c1Br [Example 666, (S)-4-Bromo-5-((1-methoxy-3-(3-oxo-3-(4-(5-(trifluoromethyl)pyrimidin-2-yl)piperazin-1-yl)propoxy)propan-2-yl)oxy)pyridazin-3(2H)-one] | > 7.00
24 | N#Cc1ccc(N2CCN(C(=O)C[C@H]3CC[C@H](COc4cn[nH]c(=O)c4C(F)(F)F)O3)CC2)nc1 (single isomer, unassigned) [Example 580 Isomer B] | 6.00 to 7.00
25 | N#Cc1ccc(N2CCN(C(=O)CCOC[C@@H]3CCCN3c3cn[nH]c(=O)c3Cl)CC2)nc1 [Example 468, (S)-6-(4-(3-((1-(5-Chloro-6-oxo-1,6-dihydropyridazin-4-yl)pyrrolidin-2-yl)methoxy)propanoyl)piperazin-1-yl)nicotinonitrile] | > 7.00
26 | CC(=O)NCC1c2ccccc2CN1c1cn[nH]c(=O)c1C(F)(F)F (centres unmarked) [Example 264, N-((2-(6-Oxo-5-(trifluoromethyl)-1,6-dihydropyridazin-4-yl)isoindolin-1-yl)methyl)acetamide] | ≤ 6.00
27 | N#Cc1ccc(N2CCN(C(=O)c3cccc(NCC4CCCN4c4cn[nH]c(=O)c4C(F)(F)F)c3)CC2)nc1 (centres unmarked) [Example 455, 6-(4-(3-(((1-(6-Oxo-5-(trifluoromethyl)-1,6-dihydropyridazin-4-yl)pyrrolidin-2-yl)methyl)amino)benzoyl)piperazin-1-yl)nicotinonitrile] | > 7.00
28 | O=c1[nH]ncc(N2Cc3cccc(OC4CCCOC4)c3C2)c1C(F)(F)F (centres unmarked) [Example 268, 5-(4-((Tetrahydro-2H-pyran-3-yl)oxy)isoindolin-2-yl)-4-(trifluoromethyl)pyridazin-3(2H)-one] | > 7.00
29 | N#Cc1ccc(N2CCN(C(=O)c3cccc(OC[C@@H]4CCCN4c4cn[nH]c(=O)c4C(F)(F)F)c3)CC2)nc1 [Example 32, 6-[4-[(3-[[(2S)-1-[6-Oxo-5-(trifluoromethyl)-1,6-dihydropyridazin-4-yl]pyrrolidin-2-yl]methoxy]phenyl)carbonyl]piperazin-1-yl]pyridine-3-carbonitrile] | > 7.00
30 | C[C@@H](COCCC(=O)N1CCN(c2ccc(C#N)cn2)CC1)Nc1cn[nH]c(=O)c1C(F)(F)F [Example 513A, (S)-6-(4-(3-(2-(6-Oxo-5-(trifluoromethyl)-1,6-dihydropyridazin-4-ylamino)propoxy)propanoyl)piperazin-1-yl)nicotinonitrile] | > 7.00
31 | N#Cc1ccc(N2CCN(C(=O)CCCOC[C@@H]3CCCN3c3cn[nH]c(=O)c3C(F)(F)F)CC2)nc1 [Example 77, 6-[4-(4-[[(2S)-1-[6-oxo-5-(trifluoromethyl)-1,6-dihydropyridazin-4-yl]pyrrolidin-2-yl]methoxy]butanoyl)piperazin-1-yl]pyridine-3-carbonitrile] | > 7.00
32 | O=C(CCOC[C@@H]1CCCN1c1cn[nH]c(=O)c1C(F)(F)F)N[C@H]1CC[C@@H](Nc2ccccn2)CC1 (single isomer, unassigned; isomer b) [Example 81 Isomer B] | ≤ 6.00
